Patent publication US9351494B2, “Honeybee repellents and uses thereof” (Inscent, Inc., priority 2013, dated 2016)

Experiments:
[1] = system: Apis mellifera Carniolan foraging worker honeybees; assay: proboscis extension response (PER) assay with bees conditioned to 2-heptanone; assay type: in vivo; details: for 2-heptanone positive bees testing positive to compound: PER, compound 0.5% on filter paper, 4 seconds exposure, only bees giving a PER with 2-heptanone but not with negative controls counted
Protocol: To determine whether a living honeybee can recognize a candidate compound, these compounds were tested using a proboscis extension response (PER) assay using classical conditioning approaches. Proboscis extension response conditioning is a case of appetitive learning, in which bees learn to associate odor stimuli with sucrose reward in the laboratory. In this case, bees were conditioned to produce a PER to 2-heptanone as the conditioned stimulus and a sugar reward as the unconditioned stimulus. These trained bees were then exposed to an odor pulse of a candidate compound to test whether a candidate compound would also produce a PER. If the candidate compound “mimics” 2-heptanone then the honeybee will extend its proboscis. For conditioning procedures, Apis mellifera Carniolan foraging worker honeybees were obtained from a local apiary (typically 60 bees per shipment). The honeybees were held overnight in insect cages with food and water freely available, in an environmentally controlled room on a light cycle similar to the ambient cycle at the time of the assay. For conditioning procedures, all tests were done in an odorant delivery apparatus set inside a fume hood. The apparatus comprised a set of open-ended, horizontal, 3 cm diameter by 10 cm long plastic tubes. Each tube was designed where a honeybee could be positioned at the distal end of a tube, with the opening at the other end of the tube located proximal to an inlet of the fume hood. To deliver an odorant, room air was pumped by a diaphragm pump through a particle filter via 0.25 inch plastic tubing at approximately 0.7 m/sec. The air flow passes into the headspace above an odorant (0.5% [v/v]2-heptanone dissolved in odorless light paraffin oil) contained in a 100 mL bottle. The headspace air then passes through another plastic tube to a manifold of 4-way valves, each of which was attached near the proximal end of a plastic tube containing a bee. Each bee was exposed separately for a desired time period to the odorant by opening and closing the appropriate valve. When each valve was closed, the odor was flushed away immediately by the continuous fume hood air stream. To train a honeybee to respond to a conditioned and unconditioned stimuli, bees were placed, without anesthesia, in individual 1.5 mL micro-centrifuge holding tubes and held overnight without access to food or water. The holding tubes containing the starved bees were placed in racks in groups of eight. One rack at a time was placed behind the odorant delivery apparatus so that each bee's head is centered at the distal end of a horizontal plastic tube. Each bee was exposed to the 2-heptanone odorant alone for four seconds, and then while being fed an 80% sucrose solution for and additional three seconds. The sucrose solution was delivered on a piece of saturated filter paper held in forceps. […] Positive and negative responses were recorded. A positive PER was scored when a bee extended its proboscis before the sucrose appeared. In a typical trial, 48 individual bees were subjected to conditioning. Six rounds of training were done before testing began, and typically a majority of the bees were successfully conditioned by the second or third round of training. After conditioning, honeybees were tested with the candidate compounds the same day or on the following day or, most commonly, both. When held overnight, bees were fed with sucrose and kept in their holding tubes. When tested the day after training, bees were given one or more rounds of conditioning with 2-heptatone to refresh their memories. Candidate compounds stocks were made at 5% (w/v) in polyoxyethylene octyl phenyl ether (TRITON® X-100), a non-ionic detergent/surfactant, and stored at 4° C. This detergent is similar to substances used as carriers for a variety of commercial pest-control agents, can act as a solvent for both hydrophilic and hydrophobic substances, and is itself nearly odorless. […]

[2] = cited from earlier work
[3] = system: OBP2; assay: fluorescent-quench, ligand-protein-binding assay (OBP2 binding); parameters: species or system Apis mellifera
Text: To identify a honeybee repellent disclosed herein, candidate compounds were screened based upon the fact that 2-heptanone is an established repellent of bees. 2-heptanone is thought to mediate its behavioral response through binding to a specific odorant-binding protein called OBP2. Therefore compounds that bind OBP2 have the potential to act as odor “mimics” of 2-heptanone. By utilizing a fluorescent-quench, ligand-protein-binding assay, 30,000 compounds from the […]® library (ChemBridge Corp., San Diego, Calif.), a chemical library, were screened and over 150 candidate compounds were isolated that bind OBP2 (Table 1). Such assays are generally known in the art. See, e.g., Briand, et al., Ligand-Binding Properties and Structural Characterization of a Novel Rat Odorant-Binding Protein Variant, Eur. J. Biochem. 267(10): 3079-3089 (2000); Briand, et al., Ligand Binding and Physico-Chemical Properties of ASP2, A Recombinant Odorant-Binding Protein From Honeybee (Apis mellifera L.), Eur. J. Biochem. 268(3): 752-760 (2001); Briand, et al., Characterization of a Chemosensory Protein (ASP3c) from Honeybee (Apis mellifera L.) as a Brood Pheromone Carrier, Eur. J. Biochem. 269(18): 4586-4596 (2002), each of which is hereby incorporated by reference in its entirety.

[4] = system: Apis mellifera Carniolan foraging worker honeybees; assay: choice test in a free-flight box apparatus; assay type: in vivo; details: for Z-score: Z-test (alpha=10%) versus control likelihood 47.5%, critical Z-score 1.282, positive value attractant, negative repellant; for nP (number of tests a honeybee returned to a preferred test dish): candidate compound 0.05-0.5% on filter paper below honey dish, out of n total tests; for P (probability that a honeybee will return to a test dish, nP/n): compared to control likelihood of 47.5% without compound
Text: To determine whether living honeybees will choice to move towards a source of a candidate compound, these compounds will be assayed using a choice test in a free-flight box apparatus.
All tests will be done in a free-flight box apparatus. The apparatus comprises a 244 cm long×46 cm deep×30 cm high clear plastic box including two equally-sized independent testing chambers, each with 10 cm diameter air inlets that admit filtered room air, separated by a smaller central chamber with a screened air outlet to each testing chamber. Air can be pulled through the sealed box via a 10 cm diameter duct from the air outlet using an AQE Fume Fighter 500 fume extractor (BPA Air Quality Solutions, LLC, Charleston, S.C.), which removes the test odors using activated charcoal and HEPA filters. The box is housed in an environmentally controlled room with overhead illumination timed to correspond to the current ambient light cycle including 2 additional sets of lights timed to approximate crepuscular lighting conditions. The bottom of the apparatus will be lined with clean absorbent paper marked with a 4×9 grid pattern, forming 12 cm×12 cm squares with marked coordinates.
Apis mellifera Carniolan foraging worker honeybees will be obtained from a local apiary (typically 60 bees per shipment). Thirty honeybees will be put into each testing chamber and will be allowed to acclimate for 24 hours with food and water freely available. At the beginning of each test day all food will be removed from the test chamber, but water will be continually available throughout all tests. For each test, approximately 0.3 g of organic, raw orange blossom honey will be added to each clean small plastic weigh boat (Cole-Palmer). The honey boats will be placed in small plastic culture dishes, which will be distributed in the marked squares in the chambers. The positions of the dishes on the grid for a set of trials was chosen to avoid bees' preferred resting area so that they will have to find the food actively, but the same dish positions will be maintained for a given set of trials. We will use seven dishes of honey: six to which the bees will have access and a seventh that will have a screened lid. The honey in each boat was weighed on an analytical balance before and after the test, with the screened sample as a control for evaporative loss. The fume extractor was left off during the experimental trails, and was turned on to clear the air after the test dishes were covered and removed from the chamber at the end of each trial.
Based on the observation that bees tend to return to dishes in the same position where they have fed before, each set of trials with each group of bees began with “Pattern Identification” tests to see which dishes lose the most weight, reflecting the most feeding. Once bees are consuming an acceptable amount in 10-15 min, typically in 1-2 trials, a set of test compound trials will begin. The test compound will be pipetted onto pieces of filter paper placed on the dish bottom below the boat containing a fresh, weighed honey sample so that the test compound will be inaccessible to the bees. We used 2 μL of a candidate compound at a concentration of 0.05-0.5%, in Triton X-100 or paraffin oil, on each of four pieces of filter paper per dish. The test-solution dishes will be set at the same positions as the one or two dishes favored in the preceding Pattern Identification trial. To eliminate interference from the solvent, the other dishes without the test substance will contain the same volume of the appropriate solvent on filter papers as the test solution dishes. The bees will be allowed to feed for 10-15 minutes. Bee movements will be recorded by a small, wide-angle digital video camcorder (HD Hero 960; GoPro, Halfmoon Bay, Calif.) placed on a tripod in front of the test chamber. […]

Row | SMILES | total bees subjected to conditioning that exhibited a PER with the 2-heptanone positive control ([1]; 0.5% 2-heptanone in paraffin oil) | solubility in alcohol or ether ([2]; alcohol or ether) | solubility in water ([2]; water) | 2-heptanone positive bees testing positive to compound [1] [%] | OBP2 binding characteristic of compound [3] | Z-score [4] | nP (number of tests a honeybee returned to a preferred test dish) [4] | P (probability that a honeybee will return to a test dish, nP/n) [4]
1 | CCCCCC(C)=O [2-heptanone, 2-Heptanone] | about half | soluble | very slightly soluble |  |  |  |  | 
2 | O=C(NC(=S)N1CCCc2ccccc21)c1ccccc1 [Candidate Compound 62, N-(3,4-dihydro-1(2H)-quinolinylcarbonothioyl)benzamide] |  |  |  | 23.6 | Moderate (Moderate, indicates that 50% or less of the compound bound to OBP2.) |  |  | 
3 | COc1ccc(C2SCC(=O)N2CCc2ccccc2)cc1 (centres unmarked) [Candidate Compound 63, 2-(4-methoxyphenyl)-3-(2-phenylethyl)-1,3-thiazolidin-4-one] |  |  |  | 21.4 | Moderate (Moderate, indicates that 50% or less of the compound bound to OBP2.) | 0.394 | 32 | 0.5
4 | CCOc1cc(C)nc(-c2ccccc2O)n1 [Candidate Compound 64, 2-(4-ethoxy-6-methyl-2-pyrimidinyl)phenol] |  |  |  | 21.7 | Moderate (Moderate, indicates that 50% or less of the compound bound to OBP2.) | −3.043 | 16 | 0.276
5 | COc1ccc(CCC(C)NN2CCOCC2)cc1 (centres unmarked) [Candidate Compound 65, N-[3-(4-methoxyphenyl)-1-methylpropyl]-4-morpholinamine] |  |  |  | 7.6 | Moderate (Moderate, indicates that 50% or less of the compound bound to OBP2.) |  |  | 
6 | CCOC(=O)c1c(NC(=O)C(C)(C)C)sc2c1CCCC2 [Candidate Compound 69, ethyl 2-[(2,2-dimethylpropanoyl)amino]-4,5,6,7-tetrahydro-1-benzothiophene-3-carboxylate] |  |  |  | 6.5 | Moderate (Moderate, indicates that 50% or less of the compound bound to OBP2.) |  |  | 
7 | Nc1c(C(=O)c2ccccc2)sc2nc(-c3ccccc3)ccc12 [Candidate Compound 76, (3-amino-6-phenylthieno[2,3-b]pyridin-2-yl)(phenyl)methanone] |  |  |  | 11.9 | Moderate (Moderate, indicates that 50% or less of the compound bound to OBP2.) |  |  | 
8 | C=CCOc1cc(C)nc(-c2ccccc2O)n1 [Candidate Compound 104, 2-[4-(allyloxy)-6-methyl-2-pyrimidinyl]phenol] |  |  |  | 27.9 | Moderate (Moderate, indicates that 50% or less of the compound bound to OBP2.) |  |  | 
